Earlier results on 1 molecule are cited in EP2908850B1, “A COMPOSITION COMPRISING GLUCORAPHANIN, MYROSINASE AND A BUFFERED SOLUTION FOR USE IN THE TREATMENT OF NEURODEGENERATIVE DISEASES” (Bramanti, Placido, priority 2012, dated 2014).

For the series the following is noted: state of the art statement.

As to `C[S+]([O-])CCCCN=C=S` (racemic) [RS,SS-SFN, sulforaphane], the solubility in water entry was “slightly soluble in water” and the stability result is recorded as “unstable”.
